US20250195530A1, “POLQ INHIBITORS” (ASTRAZENECA AB, priority 2022, published 2025)

Tests used:
DLD-1 BRCA2−/− cells = experiment: Homologous recombination synthetic lethal inhibition of proliferation, DLD-1 BRCA2-/- (Cell Titre Glo 3D); assay type: cell-based; settings: Homo sapiens, DLD-1, 288 h, DLD-1 BRCA2−/− cells, 12 days; read-out: POLQ PD Prolif Lumin BRCA2 −/− mean pIC50 (converted)
Outline: (§1)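 Read-out: CellTiter-Glo 3D luminescence, day 7 for wt DLD-1, day 12 for BRCA2−/−, about 8-9 population doublings each. Seeding 1,500 or 3,000 cells/mL respectively. Dose range 10 μM–0.51 nM, 3-fold, 10 points, with re-dosing on day 6. IC50 from curve fit.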

DLD-1 cells = experiment: Inhibition of proliferation, DLD-1 BRCA2 wt control (Cell Titre Glo 3D); assay type: cell-based; settings: Homo sapiens, DLD-1, 168 h, DLD-1 BRCA2 wt cells, 7 days; read-out: POLQ PD Prolif Lumin DLD1 mean pIC50 (converted)
Outline: as §1

With `CC1(Oc2ncnc3c2nc(-c2ccc(C(=O)N4CCNCC4)cc2Cl)n3Cc2ccccc2)CC1` [Example N3, (4-(9-benzyl-6-(1-methylcyclopropoxy)-9H-purin-8-yl)-3-chlorophenyl)(piperazin-1-yl)methanone] the IC50 (DLD-1 BRCA2−/− cells) was 0.794 µM and the IC50 (DLD-1 cells) was > 10 µM.
With `CC1(Oc2ncnc3c2nc(-c2ccc(C(N)=O)cc2Cl)n3Cc2ccccc2)CC1` [Example N4, 4-(9-benzyl-6-(1-methylcyclopropoxy)-9H-purin-8-yl)-3-chlorobenzamide] the IC50 (DLD-1 BRCA2−/− cells) was 0.2 µM and the IC50 (DLD-1 cells) was > 10 µM.
For `CC1(Oc2ncnc3c2nc(-c2ccc(CN4CCCC4)cc2Cl)n3Cc2ccccc2)CC1` [Example N5, 9-benzyl-8-(2-chloro-4-(pyrrolidin-1-ylmethyl)phenyl)-6-(1-methylcyclopropoxy)-9H-purine], the IC50 (DLD-1 BRCA2−/− cells) was 0.1 µM and the IC50 (DLD-1 cells) was 3.98 µM.
`CC1(Oc2ncnc3c2nc(-c2ccc(CN4CCNCC4)cc2Cl)n3Cc2ccccc2)CC1` [Example N6, 9-benzyl-8-(2-chloro-4-(piperazin-1-ylmethyl)phenyl)-6-(1-methylcyclopropoxy)-9H-purine] was tested, and the IC50 (DLD-1 BRCA2−/− cells) was 0.1 µM and the IC50 (DLD-1 cells) was 3.98 µM.
`CC1(Oc2ncnc3c2nc(-c2ccc(CN)cc2Cl)n3Cc2ccccc2)CC1` [Example N7, (4-(9-benzyl-6-(1-methylcyclopropoxy)-9H-purin-8-yl)-3-chlorophenyl)methanamine] was tested, and the IC50 (DLD-1 BRCA2−/− cells) was 0.631 µM and the IC50 (DLD-1 cells) was 6.31 µM.
`COc1ccc(-c2nc3c(OC4(C)CC4)ncnc3n2Cc2ccccc2)c(Cl)c1` [Example N8, 9-Benzyl-8-(2-chloro-4-methoxyphenyl)-6-(1-methylcyclopropoxy)-9H-purine] was tested, and the IC50 (DLD-1 BRCA2−/− cells) was 0.251 µM and the IC50 (DLD-1 cells) was > 10 µM.
`COc1ncccc1-c1nc2c(OC3(C)CC3)ncnc2n1Cc1ccccc1` [Example N9, 9-benzyl-8-(2-methoxypyridin-3-yl)-6-(1-methylcyclopropoxy)-9H-purine] was tested, and the IC50 (DLD-1 BRCA2−/− cells) was 1.26 µM and the IC50 (DLD-1 cells) was > 10 µM.
For `CC1(Oc2cccc3c2nc(-c2ccc(OCCN4CCNCC4)cc2Cl)n3Cc2ccccn2)CCC1` [Example P1, 2-(2-chloro-4-(2-(piperazin-1-yl)ethoxy)phenyl)-4-(1-methylcyclobutoxy)-1-(pyridin-2-ylmethyl)-1H-benzo[d]imidazole], the IC50 (DLD-1 BRCA2−/− cells) was 1.26 µM and the IC50 (DLD-1 cells) was > 10 µM.
Compound `CC1(Oc2cccc3c2nc(-c2ccc(OCCN4CCNCC4)cc2Cl)n3Cc2ccccc2)CCC1` [Example P2, 1-benzyl-2-(2-chloro-4-(2-(piperazin-1-yl)ethoxy)phenyl)-4-(1-methylcyclobutoxy)-1H-benzo[d]imidazole] has an IC50 (DLD-1 BRCA2−/− cells) of 0.794 µM and an IC50 (DLD-1 cells) of 2.51 µM.
With `CC1(Oc2ccnc3c2nc(-c2ccc(OCCN4CCNCC4)cc2Cl)n3Cc2ccccn2)CCC1` [Example P3, 2-(2-chloro-4-(2-(piperazin-1-yl)ethoxy)phenyl)-7-(1-methylcyclobutoxy)-3-(pyridin-2-ylmethyl)-3H-imidazo[4,5-b]pyridine] the IC50 (DLD-1 BRCA2−/− cells) was 2 µM and the IC50 (DLD-1 cells) was > 10 µM.
In the case of `CC1(Oc2ccnc3c2nc(-c2ccc(OCCN4CCNCC4)cc2Cl)n3Cc2ccccc2)CCC1` [Example P4, 3-benzyl-2-(2-chloro-4-(2-(piperazin-1-yl)ethoxy)phenyl)-7-(1-methylcyclobutoxy)-3H-imidazo[4,5-b]pyridine], the IC50 (DLD-1 BRCA2−/− cells) is reported as 0.316 µM and the IC50 (DLD-1 cells) is reported as 1.26 µM.
In the case of `C#CC1(Oc2ncnc3c2nc(-c2ccc(OCCN4CCNCC4)cc2Cl)n3Cc2ccccc2)CC1` [Example Q1, 9-benzyl-8-(2-chloro-4-(2-(piperazin-1-yl)ethoxy)phenyl)-6-(1-ethynylcyclopropoxy)-9H-purine], the IC50 (DLD-1 BRCA2−/− cells) is reported as 0.316 µM and the IC50 (DLD-1 cells) is reported as > 10 µM.
Compound `CCC1(Oc2ncnc3c2nc(-c2ccc(OCCN4CCNCC4)cc2Cl)n3Cc2ccccc2)CC1` [Example Q2, 9-benzyl-8-(2-chloro-4-(2-(piperazin-1-yl)ethoxy)phenyl)-6-(1-ethylcyclopropoxy)-9H-purine] has an IC50 (DLD-1 BRCA2−/− cells) of 0.398 µM and an IC50 (DLD-1 cells) of 2 µM.
Compound `C#CC1(Oc2ncnc3c2nc(-c2ccc(OCCN4CCNCC4)cc2Cl)n3Cc2ccccc2)CCC1` [Example Q3, 9-benzyl-8-(2-chloro-4-(2-(piperazin-1-yl)ethoxy)phenyl)-6-(1-ethynylcyclobutoxy)-9H-purine] has an IC50 (DLD-1 BRCA2−/− cells) of 0.251 µM and an IC50 (DLD-1 cells) of 5.01 µM.
`Clc1cccc(Cn2c(-c3ccc(OCCN4CCNCC4)cc3Cl)nc3c(OC4CC4)ncnc32)c1` [Example Q4, 8-(2-chloro-4-(2-(piperazin-1-yl)ethoxy)phenyl)-9-(3-chlorobenzyl)-6-cyclopropoxy-9H-purine] gave an IC50 (DLD-1 BRCA2−/− cells) of 0.2 µM and an IC50 (DLD-1 cells) of 2 µM.
`N#CC1(Oc2ncnc3c2nc(-c2ccc(OCCN4CCNCC4)cc2Cl)n3Cc2cccc(Cl)c2)CC1` [Example Q5, 1-((8-(2-chloro-4-(2-(piperazin-1-yl)ethoxy)phenyl)-9-(3-chlorobenzyl)-9H-purin-6-yl)oxy)cyclopropane-1-carbonitrile] was tested, and the IC50 (DLD-1 BRCA2−/− cells) was 0.158 µM and the IC50 (DLD-1 cells) was 6.31 µM.
`CC1(Oc2ncnc3c2nc(-c2ccc(OCCN4CC5(CC(O)C5)C4)cc2Cl)n3Cc2cc(Cl)ccn2)CC1` [Example R1, 2-(2-(3-chloro-4-(9-((4-chloropyridin-2-yl)methyl)-6-(1-methylcyclopropoxy)-9H-purin-8-yl)phenoxy)ethyl)-2-azaspiro[3.3]heptan-6-ol] was tested, and the IC50 (DLD-1 BRCA2−/− cells) was 0.126 µM and the IC50 (DLD-1 cells) was > 10 µM.
For `CC1(Oc2ncnc3c2nc(-c2ccc(OCCN4CC[C@@H](O)C4)cc2Cl)n3Cc2cc(Cl)ccn2)CC1` [Example R2, (R)-1-(2-(3-chloro-4-(9-((4-chloropyridin-2-yl)methyl)-6-(1-methylcyclopropoxy)-9H-purin-8-yl)phenoxy)ethyl)pyrrolidin-3-ol], the IC50 (DLD-1 BRCA2−/− cells) was 0.126 µM and the IC50 (DLD-1 cells) was > 10 µM.
For `C[C@H]1CN(CCOc2ccc(-c3nc4c(OC5(C)CC5)ncnc4n3Cc3ccccc3)c(Cl)c2)CCN1` [Example R3, (S)-9-benzyl-8-(2-chloro-4-(2-(3-methylpiperazin-1-yl)ethoxy)phenyl)-6-(1-methylcyclopropoxy)-9H-purine], the IC50 (DLD-1 BRCA2−/− cells) was 0.0631 µM and the IC50 (DLD-1 cells) was 3.16 µM.
`CC1(Oc2ncnc3c2nc(-c2ccc(OCCN4CC5CCC(C4)N5)cc2Cl)n3Cc2ccccc2)CC1` [Example R4, 8-(4-(2-(3,8-diazabicyclo[3.2.1]octan-3-yl)ethoxy)-2-chlorophenyl)-9-benzyl-6-(1-methylcyclopropoxy)-9H-purine] showed an IC50 (DLD-1 BRCA2−/− cells) of 0.126 µM and an IC50 (DLD-1 cells) of 3.16 µM.
`CC1(Oc2ncnc3c2nc(-c2ccc(OCCN4CC5CC(C4)N5)cc2Cl)n3Cc2ccccc2)CC1` [Example R5, 3-(2-(4-(9-benzyl-6-(1-methylcyclopropoxy)-9H-purin-8-yl)-3-chlorophenoxy)ethyl)-3,6-diazabicyclo[3.1.1]heptane] gave an IC50 (DLD-1 BRCA2−/− cells) of 0.1 µM and an IC50 (DLD-1 cells) of 3.98 µM.
`C[C@@H]1CN(CCOc2ccc(-c3nc4c(OC5(C)CC5)ncnc4n3Cc3ccccc3)c(Cl)c2)CCN1` [Example R6, (R)-9-benzyl-8-(2-chloro-4-(2-(3-methylpiperazin-1-yl)ethoxy)phenyl)-6-(1-methylcyclopropoxy)-9H-purine] showed an IC50 (DLD-1 BRCA2−/− cells) of 0.0631 µM and an IC50 (DLD-1 cells) of 3.16 µM.
With `CC1(Oc2ncnc3c2nc(-c2ccc(OCCN4CCC[C@@H](O)C4)cc2Cl)n3Cc2ccccc2)CC1` [Example R7, (R)-1-(2-(4-(9-benzyl-6-(1-methylcyclopropoxy)-9H-purin-8-yl)-3-chlorophenoxy)ethyl)piperidin-3-ol] the IC50 (DLD-1 BRCA2−/− cells) was 0.0631 µM and the IC50 (DLD-1 cells) was 3.16 µM.
In the case of `CC1(Oc2ncnc3c2nc(-c2ccc(OCCN4CC5(CNC(=O)C5)C4)cc2Cl)n3Cc2ccccc2)CC1` [Example R8, 2-(2-(4-(9-benzyl-6-(1-methylcyclopropoxy)-9H-purin-8-yl)-3-chlorophenoxy)ethyl)-2,6-diazaspiro[3.4]octan-7-one], the IC50 (DLD-1 BRCA2−/− cells) is reported as 0.251 µM and the IC50 (DLD-1 cells) is reported as 3.98 µM.
`C[C@@H]1CN(CCOc2ccc(-c3nc4c(OC5(C)CC5)ncnc4n3Cc3ccccc3)c(Cl)c2)C[C@H](C)N1` [Example R9, (cis)-9-benzyl-8-(2-chloro-4-(2-(3,5-dimethylpiperazin-1-yl)ethoxy)phenyl)-6-(1-methylcyclopropoxy)-9H-purine] was tested, and the IC50 (DLD-1 BRCA2−/− cells) was 0.0501 µM and the IC50 (DLD-1 cells) was 1.58 µM.
`C[C@H]1CNCCN1CCOc1ccc(-c2nc3c(OC4(C)CC4)ncnc3n2Cc2ccccc2)c(Cl)c1` [Example R10, (S)-9-benzyl-8-(2-chloro-4-(2-(2-methylpiperazin-1-yl)ethoxy)phenyl)-6-(1-methylcyclopropoxy)-9H-purine] gave an IC50 (DLD-1 BRCA2−/− cells) of 0.126 µM and an IC50 (DLD-1 cells) of 2 µM.
`C[C@@H]1CNCCN1CCOc1ccc(-c2nc3c(OC4(C)CC4)ncnc3n2Cc2ccccc2)c(Cl)c1` [Example R11, (R)-9-benzyl-8-(2-chloro-4-(2-(2-methylpiperazin-1-yl)ethoxy)phenyl)-6-(1-methylcyclopropoxy)-9H-purine] showed an IC50 (DLD-1 BRCA2−/− cells) of 0.1 µM and an IC50 (DLD-1 cells) of 2.51 µM.
`CC1(Oc2ncnc3c2nc(-c2ccc(OCCN4CCCNCC4=O)cc2Cl)n3Cc2ccccc2)CC1` [Example R12, 1-(2-(4-(9-benzyl-6-(1-methylcyclopropoxy)-9H-purin-8-yl)-3-chlorophenoxy)ethyl)-1,4-diazepan-2-one] gave an IC50 (DLD-1 BRCA2−/− cells) of 0.1 µM and an IC50 (DLD-1 cells) of 2.51 µM.
`CC1(Oc2ncnc3c2nc(-c2ccc(OCCN4C5CNCC4C5)cc2Cl)n3Cc2ccccc2)CC1` [Example R15, 6-(2-(4-(9-benzyl-6-(1-methylcyclopropoxy)-9H-purin-8-yl)-3-chlorophenoxy)ethyl)-3,6-diazabicyclo[3.1.1]heptane] was tested, and the IC50 (DLD-1 BRCA2−/− cells) was 0.501 µM and the IC50 (DLD-1 cells) was 5.01 µM.
In the case of `CC1(Oc2ncnc3c2nc(-c2ccc(OCCN4CCNC5(CC5)C4)cc2Cl)n3Cc2ccccc2)CC1` [Example R17, 8-(4-(2-(4,7-diazaspiro[2.5]octan-7-yl)ethoxy)-2-chlorophenyl)-9-benzyl-6-(1-methylcyclopropoxy)-9H-purine], the IC50 (DLD-1 BRCA2−/− cells) is reported as 0.1 µM and the IC50 (DLD-1 cells) is reported as 1 µM.
Work on `CC1(Oc2ncnc3c2nc(-c2ccc(OCCN4CCN[C@@H](CO)C4)cc2Cl)n3Cc2ccccc2)CC1` [Example R18, (R)-(4-(2-(4-(9-benzyl-6-(1-methylcyclopropoxy)-9H-purin-8-yl)-3-chlorophenoxy)ethyl)piperazin-2-yl)methanol] yielded an IC50 (DLD-1 BRCA2−/− cells) of 0.126 µM and an IC50 (DLD-1 cells) of 6.31 µM.
